According to patent US20090286884A1, “Hops Beta-Acid Anti-Diabetic Composition” (priority 2004, published 2009):

Tested on: normal human muscle myoblasts (HSMM)
Experiment: 3H-deoxyglucose uptake into skeletal muscle cells
Assay type: cell-based
Settings: after 24 hrs incubation in the presence of various hops extracts
Procedure: All skeletal muscle cell strains used are skeletal muscle myoblast cells (purchased from Clonetics) with negative for HIV-I, hepatitis-B & C, mycoplasma, bacteria, yeast and fungi. This Skeletal Muscle Myoblast Cell System contains normal human muscle myoblasts (HSMM). The cell and media System can quickly generate HSMM cultures for the study of cellular development and differentiation, insulin uptake or resistance, or tissue repair. The Skeletal muscle cells were cultured on Cytostar 96-well cultured plate. Cells were labeled with 3H-deoxyglucose (50 μCi/ml, 4 μM) in the presence of 8 mM glucose. Radioactivity was counted on a Microbeta scintillation counter. In beta-acid treated cells (mixture of 65:25:10 of co-Lupulone: lupulone: ad-lupulone, Beta Tec, Washington, D.C.), kinetics of labeled deoxyglucose uptake was directly measured without washing. In order to avoid color quenching of quercetin treated cells, cells were washed with Hanks buffer and then the radioactivity was measured at end-point (18 hr). Error bars show SD (n=3).

**Q.** `COc1cc(O)c(CC=C(C)C)c(O)c1C(=O)/C=C/c1ccc(O)cc1` [xanthohumol] was tested. Which “glucose uptake into muscle skeletal cells, enhancing effect” value did it give?
**A.** Its value is “no enhancing effect”.
